According to patent US20090304816A1, “METHOD AND COMPOSITION FOR TREATING AND DIAGNOSING RESTLESS LEGS SYNDROME” (CEREUSCIENCE AB, priority 2005, published 2009):
Read-outs that look alike come from different tables or passages of the source.

Tests used:
[1] = test system: patients with moderate to severe RLS/PMLS; experiment: IRLSS score in two patients with RLS/PLMS, Example 1; type: in vivo
From the text: (§1) RLS and PLMS are typically diagnosed by patient history and standardized questionnaires as well as by polysomnographic evaluation.

[2] = test system: patients with moderate to severe RLS/PMLS; settings: pramipexole 0.35 mg once daily evening dose for 21 days
Method: (§3) Due to remaining RLS complaints iron sucrose therapy in the dosage 500 mg i.v. twice, was introduced during one week (FIG. 1; C).

[3] = test system: patients with moderate to severe RLS/PMLS; settings: both patients; pramipexole 0.35 mg once daily for 21 days
Method: as §3

[4] = test system: patient with clinical symptoms of RLS; experiment: IRLSS score in a third patient with RLS, Example 2; type: in vivo; settings: iron dextran, after discontinuation of dopaminergic treatment (FIG. 2; E)
Method: as §1
(§2) A subsequent clinical observational study included a patient with clinical symptoms of RLS and an IRLSS score of 26 on the diagnostic evaluation under treatment with L-dopa (levodopa) and carbidopa (Sinernet®, fixed combination dosage of 100 mg L-dopa and 25 mg carbidopa) (FIG. 2; A). The patient needed to be treated with altogether three tablets per evening in order to obtain acceptable symptom relief (IRLSS score 4. FIG. 2; B). […] An attempt to discontinue dopaminergic treatment altogether failed. Following this discontinuation there was a substantial symptom relapse (IRLSS score 15. FIG. 2; E).

[5] = test system: patient with clinical symptoms of RLS; experiment: Side effects and augmentation in a third patient with RLS, Example 2; type: in vivo; settings: iron dextran 200 mg daily
Method: as §2

`CCCN[C@H]1CCc2nc(N)sc2C1` [Pramipexole] showed an IRLSS score ([1]; patient with baseline IRLSS 28, pramipexole 0.35 mg once daily, day 21 (FIG. 1; B)) of 17, an IRLSS score ([1]; patient with baseline IRLSS 30, pramipexole 0.35 mg once daily, day 21 (FIG. 1; B)) of 15 and a PLMI ([2]; patient with baseline PLMI 3) of 0. For the same compound, the PLMI ([2]; patient with baseline PLMI 17) was 2 and the side effects [3] was “No side effects were reported”.
iron sucrose was tested, and the IRLSS score ([1]; patient with baseline IRLSS 28, after iron sucrose infusions, pramipexole discontinued for one week (FIG. 1; D)) was 18 and the IRLSS score ([1]; patient with baseline IRLSS 30, after iron sucrose infusions, pramipexole discontinued for one week (FIG. 1; D)) was 14.
iron dextran was tested, and the IRLSS score [4] was 15 and the adverse effects [5] was “did not cause any adverse effects”.
